Laboratory results reported in patent publication US20120183614A1, “POLYPHENOL COMPOUND ABSORPTION PROMOTER AND UTILIZATION OF SAME” (priority 2009, published 2012).

Legend:
[1] = EGCG absorbability in rats, mixed administration solutions (Test Example 8); assay type: in vivo; conditions: oral, 1 mM EGCG, Fisher's PLSD
From the text: The reason why the significant differences are found in EGCG absorbability between the Camellia sinensis (L.) O. Kuntze extracts and the usual green tea extracts although both are extracts obtained by the same hot-water extraction procedures is probably that substances contained in the extracts differ from each other. That is, the green tea extracts may contain an ingredient which inhibits EGCG absorption, or the Camellia sinensis (L.) O. Kuntze extracts may contain an ingredient which promotes EGCG absorption. In order to gain the chance of investigation of the possibility, an experiment shown in this test example was performed. Specifically, a Camellia sinensis (L.) O. Kuntze extract solution, a usual green tea extract solution, and an EGCG reagent solution were prepared so as to have the same EGCG concentration, and solutions obtained by mixing the solutions in appropriate combination were administered to rats to investigate changes in EGCG absorbability. […] In the same manner as in Test Example 7, the administration solutions were orally administered forcibly to rats mounted with a cannula in the vein, and EGCG concentrations in plasma obtained by blood collection performed with time after administration were measured and converted into areas under curve to compare amounts of EGCG remaining in blood. […]

[2] = Stability of EGCG in the chorionic side HBSS solution; assay type: physicochemical; conditions: chorionic side HBSS solution with 1 mM ascorbic acid, pH 5.5
Method: In addition, the EGCG absorption capacity of the Caco-2 cells was maintained constantly for 4 hours or more by adding 10 mM glutamine to the HBSS solutions of the chorionic side and serosal side in the measurement system.

[3] = EGCG in rat plasma after oral administration of green tea extract solution with serine and malic acid (Test Example 4); assay type: in vivo, rats; conditions: rat plasma after administration solutions (i) to (iv)
Method: The final EGCG concentration derived from the green tea extract contained in each administration solution was adjusted to 1 mM. […] During the recuperation period, the rats were fed individually in cages equipped with floor nets and allowed to ingest CE-2 feed (manufactured by CLEA Japan, Inc.) freely. […] The EGCG concentration in plasma was measured as follows: […] Isocratic elution was performed at a sample injection volume to the column of 20 μL using 0.1% phosphoric acid containing 0.1 mM EDTA·2Na:acetonitrile=90:10 as the mobile phase at a flow rate of 0.4 mL/min. […] The retention time of the EGCG standard substance was 8.0 minutes, and the detection sensitivity was 2 nM. The EGCG concentrations in actual administration solutions were also analyzed again, and it was confirmed that EGCG was administered to the rats in scheduled amounts. Rat plasma collected after administration of each of the administration solutions (i), (ii), (iii), and (iv) was treated and subjected to HPLC analysis as mentioned above. […] In other words, it was considered that most of EGCG in blood was absorbed in blood as an unconjugated free body.

[4] = system: Caco-2 cell monolayer; experiment: Transepithelial electrical resistance (TEER) of the Caco-2 cell monolayer; assay type: cell-based, human; conditions: EGCG reagent added at different concentrations to the chorionic side, 3-hour measurement period
Method: The EGCG absorption experiment was performed using a Caco-2 cell monolayer cultured on a Transwell with a diameter of 12 mm (polycarbonate filter culture area: 1.13 cm^2, pore size: 0.4 μm; manufactured by Corning). The Caco-2 cells were inoculated onto an insert of the Transwell at a density of 1.0×10^5 cells/cm^2, and culture was continued while the medium was exchanged for a fresh one every 2 days. Transepithelial electrical resistance (hereinafter, referred to as “TEER”) was measured using a Millicell ERS meter (manufactured by Millipore) to monitor the degree of completion of a tight junction of the cell monolayer, and a monolayer which had been confirmed that formation of the tight junction had been completed was used in the experiment. […]
The medium of the upper part of the Transwell insert on which the Caco-2 cell monolayer was placed (chorionic side) was replaced by a Hanks' Balanced Salt Solution-like Transport Medium having a pH of 5.5 (chorionic side HBSS solution; containing 10 mM MES, 5 mM glucose, 10 mM glutamine, and 1 mM ascorbic acid), and the medium of the lower part of the insert (serosal side) was replaced by HBSS having a pH of 7.4 (serosal side HBSS solution; containing […], 5 mM glucose, 10 mM glutamine, and 1 mM ascorbic acid). […] The cells were incubated for 30 minutes, and TEER was measured again. […]

[5] = system: Caco-2 cells; experiment: In vitro EGCG absorption measurement system, Caco-2 cell monolayer on Transwell (Papp of EGCG, chorionic to serosal side)
Method: An orally-ingested polyphenol compound, in particular, catechin compound is considered to be absorbed mainly in the intestinal tract, especially the small intestine in the body. […]
The Caco-2 cells were cultured in the presence of humidified air containing 5% CO2 in a Dulbecco's modified Eagle medium (DMEM, pH 7.4; manufactured by GIBCO) containing 10% inactivated fetal bovine serum (manufactured by HyClone), 50 U/mL penicillin-50 μg/mL streptomycin (manufactured by GIBCO), and a 1% non-essential amino acid (manufactured by GIBCO) in a plastic flask of 75 cm^2. The cells were maintained by performing subculture every 5 to 8 days when the cells reached 80 to 90% confluence. An EGCG absorption experiment to be described below was performed using Caco-2 cells which had been subcultured 30 to 70 times.
The EGCG absorption experiment was performed using a Caco-2 cell monolayer cultured on a Transwell with a diameter of 12 mm (polycarbonate filter culture area: 1.13 cm^2, pore size: 0.4 μm; manufactured by Corning). […] Transepithelial electrical resistance (hereinafter, referred to as “TEER”) was measured using a Millicell ERS meter (manufactured by Millipore) to monitor the degree of completion of a tight junction of the cell monolayer, and a monolayer which had been confirmed that formation of the tight junction had been completed was used in the experiment. […]

[6] = EGCG absorbability in rats, Camellia sinensis (L.) O. Kuntze extracts versus green tea extracts (Test Example 7); assay type: in vivo; conditions: rat plasma
From the text: For Camellia sinensis (L.) O. Kuntze extracts (Camellia sinensis (L.) O. Kuntze tea hot water extract manufactured by ASAHI SOFT DRINKS CO., Ltd.; lot 1 [i], lot 2 [ii], and lot 3 [iii]) and green tea extracts (green tea hot water extract manufactured by San-Ei Gen F.F.I., Inc.; lot 4 [iv] and lot 5 [v]), absorbability of EGCG by rats were compared. […] During the recuperation period, the rats were fed individually in cages equipped with floor nets and allowed to ingest CE-2 feed (manufactured by CLEA Japan, Inc.) freely. The numbers of samples of the administration solutions are as follows: [i] Camellia sinensis (L.) O. Kuntze extract lot 1-administered group: n=7; [ii] Camellia sinensis (L.) O. Kuntze extract lot 2-administered group: n=7; [iii] Camellia sinensis (L.) O. Kuntze extract lot 3-administered group: n=6; [iv] green tea extract lot 4-administered group:n=5; and [v] green tea extract lot 5-administered group: n=4. […] The EGCG concentration in plasma was measured in the same manner as in Test Example 4. […] Isocratic elution was performed at a sample injection volume to the column of 20 μL using 0.1% phosphoric acid containing 0.1 mM EDTA·2Na:acetonitrile=90:10 as the mobile phase at a flow rate of 0.4 mL/min. […] The EGCG concentrations in actual administration solutions were also analyzed again, and it was confirmed that EGCG was administered to the rats in scheduled amounts. […]

[7] = Catechin compounds in human plasma after Camellia sinensis (L.) O. Kuntze extract with sodium malate (Test Example 9); assay type: in vivo; conditions: humans, 135 mg with Camellia sinensis (L.) O. Kuntze extract (195 mg catechin compounds), oral; total of five catechin compounds
Method: The effect of malic acid on absorption of a catechin compound in humans was examined. Five healthy men and women which were 20 years old or more and less than 65 years old were selected as test subjects, and a test was performed on the effect of increasing the amount of the catechin compound remaining in blood by ingesting sodium malate simultaneously with the Camellia sinensis (L.) O. Kuntze extract. […]
The test was performed by a crossover test as described below. […] In the same manner as in Test Example 4, concentrations of the catechin compounds in plasma were measured by the HPLC-ECD method (electrochemical detection method). […] As the second phase, concentrations of the catechin compounds in plasma were measured under the same conditions as those in the first phase except that each subject ingested the control substance. It should be noted that the concentrations of the catechin compounds were determined as a total concentration of five kinds of catechin compounds including EGCG, 3″-O-methylepigallocatechin gallate, epigallocatechin, epicatechin gallate, and epicatechin.

SMILES	Difference in mean values, EGCG concentrations in plasma × time (areas under curve) ([1]; labelled solution vs [ii] EGCG reagent + green tea extract)	Difference in mean values, EGCG concentrations in plasma × time (areas under curve) ([1]; labelled solution vs [iii] Camellia sinensis (L.) O. Kuntze extract + green tea extract)	Stability of EGCG during the absorption experiment period [2]	Change in EGCG concentration in plasma before and after deconjugation treatments with β-glucuronidase and sulfatase [3]	TEER during the measurement period [4]	EGCG absorbed in the form of a conjugate (deconjugation treatment of EGCG permeated to the serosal side) [5]	Change in EGCG concentrations in plasma before and after the deconjugation treatment with β-glucuronidase and sulfatase [6]	AUC0→4h of total catechins in plasma relative to ingestion of no sodium malate [7] [times]
O=C(O[C@@H]1Cc2c(O)cc(O)cc2O[C@@H]1c1cc(O)c(O)c(O)c1)c1cc(O)c(O)c(O)c1 [EGCG, epigallocatechin gallate]	0.0052	0.0009	maintained completely and stably	no changes	maintained well	no EGCG absorbed in the form of a conjugate	not changed	–
O=C([O-])CC(O)C(=O)[O-].[Na+].[Na+] (centres unmarked) [sodium malate]	–	–	–	–	–	–	–	1.6
